The source of these data is patent publication US20160074301A1, “ANTI-AGING SKIN CARE COMPOSITIONS AND REGIMENS” (The Procter & Gamble Company, priority 2014, published 2016).

Experiment [1] deals with skin barrier formation. Kind of experiment: Eigengene analysis, skin barrier formation, treated cultured human keratinocytes. The format is cell-based.
Experiment [2] concerns "Clear and Detox" module genes. Kind of experiment: Eigengene of "Clear and Detox" co-expression module (FIG. 8). Conditions: cultured human keratinocytes.
The test system of experiment [3] is "Repair and Rebuild" associated genes. Kind of experiment: Eigengene of "Repair and Rebuild" co-expression module (FIG. 9). Conditions: cultured human keratinocytes.

With palmitoyl-lysine-threonine [Pal-KT], the “successful aging effect in skin barrier formation” value in experiment [1] is listed as “Effects relating to successful aging were also identified”. Besides, the “effect on "Clear and Detox" eigengene (FIG. 8)” value in experiment [2] is on record as “significantly up-regulates”.

On to “palmitoyl-lysine-threonine-threonine-lysine-serine [Pal-KTTKS]”, for which, in experiment [3], the “effect on "Repair and Rebuild" eigengene (FIG. 9)” value was “significantly up-regulate”.
